Patent publication US20050267096A1, “New indazole and indolone derivatives and their use pharmaceuticals” (Pfizer Inc, priority 2004, published 2005)

Columns and labels:
dopamine D2 receptor = dopamine D2 receptor (Homo sapiens, UniProt P14416); assay: D3/D2 agonist assay, functional response at D2 receptor; assay type: cell-based; conditions: at 1000 nM; relative to the maximal effect of pramipexole
Procedure: (§1) Activity at the dopamine D3 receptor may be determined using the methods described in WO 2004/052372. […] Selectivity is calculated as the D2 EC50 value divided by the D3 EC50 value. Where the value of the D2 EC50 was >10000, a figure of 10000 was used in the calculation.
(§2) Against the D2 receptor this compound gave only a 28% repsonse (relative to the maximal effect of pramipexole) at 1000 nM. Suitable auxiliary active agents for use in the combinations of the present invention include: • 1) Naturally occurring or synthetic prostaglandins or esters thereof. Suitable prostaglandins for use herein include compounds such as alprostadil, prostaglandin E1, prostaglandin E0, 13,14-dihydroprosta glandin E1, prostaglandin E2, eprostinol, natural synthetic and semi-synthetic prostaglandins and derivatives thereof including those described in WO-00033825 and/or U.S. Pat. No. 6,037,346 issued on 14 Mar. 2000 all incorporated herein by reference, PGE0, PGE1, PGA1, PGB1, PGF1 α, 19-hydroxy PGA1, 19-hydroxy-PGB1, PGE2, PGB2, 19-hydroxy-PGA2, 19-hydroxy-PGB2, PGE3α, carboprost tromethamine dinoprost, tromethamine, dinoprostone, lipo prost, gemeprost, metenoprost, sulprostune, tiaprost and moxisylate; • 2) α-adrenergic receptor antagonist compounds also known as α-adrenoceptors or α-receptors or α-blockers. […]

dopamine D3 receptor = dopamine D3 receptor (Homo sapiens, UniProt P35462); assay: D3/D2 agonist assay, functional potency at D3 receptor; assay type: cell-based
Chain of dopamine D3 receptor (P35462 whole entry, species assumed): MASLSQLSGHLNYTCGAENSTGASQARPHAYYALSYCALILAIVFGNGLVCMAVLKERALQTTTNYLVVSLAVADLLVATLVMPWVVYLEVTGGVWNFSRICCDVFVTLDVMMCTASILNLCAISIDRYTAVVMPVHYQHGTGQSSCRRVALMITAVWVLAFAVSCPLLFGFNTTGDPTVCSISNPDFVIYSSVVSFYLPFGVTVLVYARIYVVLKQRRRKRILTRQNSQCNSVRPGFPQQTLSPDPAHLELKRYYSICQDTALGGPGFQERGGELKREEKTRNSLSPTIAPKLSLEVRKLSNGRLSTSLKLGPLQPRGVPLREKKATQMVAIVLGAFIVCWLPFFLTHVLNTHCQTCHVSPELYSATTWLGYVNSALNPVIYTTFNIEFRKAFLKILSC
Procedure: as §1, §2

Chain of dopamine D2 receptor (P14416 whole entry): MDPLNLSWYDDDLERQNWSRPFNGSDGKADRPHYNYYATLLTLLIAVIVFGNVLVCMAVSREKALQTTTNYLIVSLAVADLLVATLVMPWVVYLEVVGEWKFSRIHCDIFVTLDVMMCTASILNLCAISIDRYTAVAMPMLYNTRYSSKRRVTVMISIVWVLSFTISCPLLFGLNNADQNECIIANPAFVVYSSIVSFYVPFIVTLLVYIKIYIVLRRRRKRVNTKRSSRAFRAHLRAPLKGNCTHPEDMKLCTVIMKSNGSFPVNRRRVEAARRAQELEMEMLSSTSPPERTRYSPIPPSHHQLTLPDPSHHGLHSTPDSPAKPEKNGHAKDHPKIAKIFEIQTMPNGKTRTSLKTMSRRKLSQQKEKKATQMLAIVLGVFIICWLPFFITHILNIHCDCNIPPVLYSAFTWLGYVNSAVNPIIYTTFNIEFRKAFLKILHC

SMILES: CCCN1CC(c2cccc3[nH]ncc23)C1 [Example 13, 4-(1-propylazetidin-3-yl)-1H-indazole]
- response against the D2 receptor (dopamine D2 receptor): 28%
- EC50 (dopamine D3 receptor; methods described in WO 2004/052372, read-out: functional potency at the D3 receptor, expressed as an EC50): 38 nM
- Emax (dopamine D3 receptor; relative to the maximal effect of standard agent pramipexole, read-out: Emax (maximal response value) at the D3 receptor): 74%
